Laboratory results taken from patent US10780090B2, “Heteroaryl compounds useful as inhibitors of SUMO activating enzyme” (Millennium Pharmaceuticals, Inc., priority 2014, dated 2020).

Biological target: recombinant human SAE enzyme (Homo sapiens (Human), UniProt Q9UBT2)
Assay: SAE HTRF enzyme assay
Assay type: biochemical
Method in brief: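 Sumoylation of Ubc9-GST by SAE was followed at low ATP (0.5 μM), pH 7.5, 24° C. for 105 min. Product was detected by HTRF with antibody pairs against Flag and GST tags.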

[1] = SAE inhibition at compound concentration 0.111 μM
[2] = SAE inhibition, class symbols, legend in nM

Chain of recombinant human SAE enzyme (Q9UBT2 whole entry): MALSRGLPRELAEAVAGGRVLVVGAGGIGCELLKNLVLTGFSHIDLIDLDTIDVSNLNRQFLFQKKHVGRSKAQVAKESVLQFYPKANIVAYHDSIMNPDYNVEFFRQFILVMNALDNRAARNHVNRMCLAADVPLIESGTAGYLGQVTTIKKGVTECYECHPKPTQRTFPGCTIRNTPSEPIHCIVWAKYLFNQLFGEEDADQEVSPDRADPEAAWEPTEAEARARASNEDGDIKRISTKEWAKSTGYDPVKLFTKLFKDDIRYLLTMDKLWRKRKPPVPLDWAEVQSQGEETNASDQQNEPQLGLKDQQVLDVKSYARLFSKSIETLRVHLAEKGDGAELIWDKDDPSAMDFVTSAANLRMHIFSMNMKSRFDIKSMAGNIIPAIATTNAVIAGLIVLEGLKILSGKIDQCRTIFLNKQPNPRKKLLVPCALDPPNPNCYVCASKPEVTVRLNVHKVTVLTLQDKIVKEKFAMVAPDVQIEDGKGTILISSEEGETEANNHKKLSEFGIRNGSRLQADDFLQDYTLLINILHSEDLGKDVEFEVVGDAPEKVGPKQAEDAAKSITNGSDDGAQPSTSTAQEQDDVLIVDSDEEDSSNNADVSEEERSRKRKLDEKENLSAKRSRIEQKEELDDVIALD
Chain of recombinant human SAE enzyme (Q9UBE0 whole entry partner): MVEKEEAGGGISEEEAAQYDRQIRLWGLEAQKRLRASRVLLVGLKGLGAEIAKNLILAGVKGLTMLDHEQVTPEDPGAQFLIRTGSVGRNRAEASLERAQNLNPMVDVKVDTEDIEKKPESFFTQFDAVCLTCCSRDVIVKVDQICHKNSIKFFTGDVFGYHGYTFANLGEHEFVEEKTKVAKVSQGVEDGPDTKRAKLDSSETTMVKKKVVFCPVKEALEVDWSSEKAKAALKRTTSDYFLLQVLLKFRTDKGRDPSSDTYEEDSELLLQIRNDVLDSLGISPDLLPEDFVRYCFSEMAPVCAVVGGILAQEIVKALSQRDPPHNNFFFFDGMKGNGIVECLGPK

Compound | Percent Inhibition (Concentration 0.111 μM) | IC50 (class symbols A/B/C) [nM] | Percent Inhibition [1] [%] | IC50 [2] [nM] | inhibition at 0.111 µM (Concentration 0.111 μM, read-out: Percent Inhibition) [%]
NS(=O)(=O)OC[C@H]1C[C@@H](Nc2ncncc2C(=O)c2cc([C@]3(c4cccc(Cl)c4)CCO3)c(Cl)s2)C[C@@H]1O (mixture of isomers) [I-67, [(1R,2S,4R)-4-{[5-({5-chloro-4-[(2R)-2-(3-chlorophenyl)oxetan-2-yl]-2-thienyl}carbonyl)pyrimidin-4-yl]amino}-2-hydroxycyclopentyl]methyl sulfamate and [(1R,2S,4R)-4-{[5-({5-chloro-4-[(2S)-2-(3-chlorophenyl)oxetan-2-yl]-2-thienyl}carbonyl)pyrimidin-4-yl]amino}-2-hydroxycyclopentyl]methyl sulfamate] | 99 | < 10 | – | – | –
Cc1sc(C(=O)c2cncnc2N[C@@H]2C[C@H](COS(N)(=O)=O)[C@@H](O)C2)nc1C1OCCc2ccc(Cl)cc21 (single isomer, unassigned) [I-300b, [(1R,2S,4R)-4-{[5-({4-[(1R)-7-chloro-3,4-dihydro-1H-isochromen-1-yl]-5-methyl-1,3-thiazol-2-yl}carbonyl)pyrimidin-4-yl]amino}-2-hydroxycyclopentyl]methyl sulfamate or [(1R,2S,4R)-4-{[5-({4-[(1S)-7-chloro-3,4-dihydro-1H-isochromen-1-yl]-5-methyl-1,3-thiazol-2-yl}carbonyl)pyrimidin-4-yl]amino}-2-hydroxycyclopentyl]methyl sulfamate] | – | – | 101 | < 10 | –
NS(=O)(=O)OC[C@H]1C[C@@H](Nc2ncncc2C(=O)c2cc([C@@H]3OCCc4c(Cl)cccc43)cs2)C[C@@H]1O (single isomer, unassigned) [I-301b, [(1R,2S,4R)-4-{[5-({4-[(1R)-5-chloro-3,4-dihydro-1H-isochromen-1-yl]-2-thienyl}carbonyl)pyrimidin-4-yl]amino}-2-hydroxycyclopentyl]methyl sulfamate or [(1R,2S,4R)-4-{[5-({4-[(1S)-5-chloro-3,4-dihydro-1H-isochromen-1-yl]-2-thienyl}carbonyl)pyrimidin-4-yl]amino}-2-hydroxycyclopentyl]methyl sulfamate] | – | – | 100 | < 10 | –
Cc1nc2c(s1)CCO[C@H]2c1cc(C(=O)c2cncnc2N[C@@H]2C[C@H](COS(N)(=O)=O)[C@@H](O)C2)sc1C (single isomer, unassigned) [I-287a, [(1R,2S,4R)-2-hydroxy-4-{[5-({5-methyl-4-[(4S)-2-methyl-6,7-dihydro-4H-pyrano[3,4-d][1,3]thiazol-4-yl]-2-thienyl}carbonyl)pyrimidin-4-yl]amino}cyclopentyl]methyl sulfamate or [(1R,2S,4R)-2-hydroxy-4-{[5-({5-methyl-4-[(4R)-2-methyl-6,7-dihydro-4H-pyrano[3,4-d][1,3]thiazol-4-yl]-2-thienyl}carbonyl)pyrimidin-4-yl]amino}cyclopentyl]methyl sulfamate] | – | – | 9 | 100 to 1000 | –
NS(=O)(=O)OC[C@H]1C[C@@H](Nc2ncncc2C(=O)c2cc([C@@H](O)c3ccccc3Cl)c(Cl)s2)C[C@@H]1O (mixture of isomers) [I-86, [(1R,2S,4R)-4-{[5-({5-chloro-4-[(S)-(2-chlorophenyl)(hydroxy)methyl]-2-thienyl}carbonyl)pyrimidin-4-yl]amino}-2-hydroxycyclopentyl]methyl sulfamate and [(1R,2S,4R)-4-{[5-({5-chloro-4-[(R)-(2-chlorophenyl)(hydroxy)methyl]-2-thienyl}carbonyl)pyrimidin-4-yl]amino}-2-hydroxycyclopentyl]methyl sulfamate] | 96 | < 10 | – | – | –
CN[C@@H](c1cccc(Cl)c1)c1cc(C(=O)c2cncnc2N[C@@H]2C[C@H](COS(N)(=O)=O)[C@@H](O)C2)sc1Cl.CN[C@H](c1cccc(Cl)c1)c1cc(C(=O)c2cncnc2N[C@@H]2C[C@H](COS(N)(=O)=O)[C@@H](O)C2)sc1Cl (mixture of isomers) [I-95, [(1R,2S,4R)-4-{[5-({5-Chloro-4-[(S)-(3-chlorophenyl)(methylamino)methyl]-2-thienyl}carbonyl)pyrimidin-4-yl]amino}-2-hydroxycyclopentyl]methyl sulfamate and [(1R,2S,4R)-4 {[5-({5-Chloro-4-[(R)-(3-chlorophenyl)(methylamino)methyl]-2-thienyl}carbonyl)pyrimidin-4-yl]amino}-2-hydroxycyclopentyl]methyl sulfamate] | 97 | < 10 | – | – | –
NS(=O)(=O)OC[C@H]1C[C@@H](Nc2ncncc2C(=O)c2cc([C@@H](O)c3cccc(Br)c3)c(Cl)s2)C[C@@H]1O (single isomer, unassigned) [I-16b, 1R,2S,4R)-4-{[5-({4-[(S)-(3-Bromophenyl)(hydroxy)methyl]-5-chloro-2-thienyl}carbonyl)pyrimidin-4-yl]amino}-2-hydroxycyclopentyl]methyl sulfamate or [(1R,2S,4R)-4-{[5-({4-[(R)-(3-Bromophenyl)(hydroxy)methyl]-5-chloro-2-thienyl}carbonyl)pyrimidin-4-yl]amino}-2-hydroxycyclopentyl]methyl sulfamate] | 98 | < 10 | – | – | –
Cc1sc(C(=O)c2cncnc2N[C@@H]2C[C@H](COS(N)(=O)=O)[C@@H](O)C2)cc1[C@H](O)c1cccc(Cl)c1 (single isomer, unassigned) [I-11b, [(1R,2S,4R)-4-{[5-({4-[(R)-(3-chlorophenyl)(hydroxy)methyl]-5-methyl-2-thienyl}carbonyl)pyrimidin-4-yl]amino}-2-hydroxycyclopentyl]methyl sulfamate or [(1R,2S,4R)-4-{[5-({4-[(S)-(3-chlorophenyl)(hydroxy)methyl]-5-methyl-2-thienyl}carbonyl)pyrimidin-4-yl]amino}-2-hydroxycyclopentyl]methyl sulfamate] | 99 | < 10 | – | – | –
Cc1sc(C(=O)c2cncnc2N[C@@H]2C[C@H](COS(N)(=O)=O)[C@@H](O)C2)cc1Cn1cc(I)cn1 [I-37, [(1R,2S,4R)-2-hydroxy-4-{[5-({4-[(4-iodo-1H-pyrazol-1-yl)methyl]-5-methyl-2-thienyl}carbonyl)pyrimidin-4-yl]amino}cyclopentyl]methyl sulfamate] | – | – | – | – | 98
NS(=O)(=O)OC[C@H]1C[C@@H](Nc2ncncc2C(=O)c2cc([C@@H]3OCCc4ccc(F)cc43)cs2)C[C@@H]1O (single isomer, unassigned) [I-267a, [(1R,2S,4R)-4-{[5-({4-[(1R)-7-fluoro-3,4-dihydro-1H-isochromen-1-yl]-2-thienyl}carbonyl)pyrimidin-4-yl]amino}-2-hydroxycyclopentyl]methyl sulfamate or [(1R,2S,4R)-4-{[5-({4-[(1S)-7-fluoro-3,4-dihydro-1H-isochromen-1-yl]-2-thienyl}carbonyl)pyrimidin-4-yl]amino}-2-hydroxycyclopentyl]methyl sulfamate] | 65 | 10 to 100 | – | – | –
Cc1sc(C(=O)c2cncnc2NC2CC(O)C(COS(N)(=O)=O)C2)cc1C(O)c1cccc(Cl)c1 (mixture of isomers) [I-11, [(1R,2S,4R)-4-{[5-({4-[(R)-(3-chlorophenyl)(hydroxy)methyl]-5-methyl-2-thienyl}carbonyl)pyrimidin-4-yl]amino}-2-hydroxycyclopentyl]methyl sulfamate and [(1R,2S,4R)-4-{[5-({4-[(S)-(3-chlorophenyl)(hydroxy)methyl]-5-methyl-2-thienyl}carbonyl)pyrimidin-4-yl]amino}-2-hydroxycyclopentyl]methyl sulfamate] | 99 | < 10 | – | – | –
